The record followed here is patent CN103739655A, “28-O-β-D-葡萄糖基化远志皂苷、其制备方法及用途” (Individual, priority 2013, dated 2014).

As a reminder, the inhibition is the relative decrease from the control value, in per cent.

Holding throughout (format): in vivo
The test system of assay [1] is carrageenan-induced rat paw swelling (角叉菜胶致大鼠足肿胀模型). Description: carrageenan-induced paw swelling model in rats. The following applies: intragastric; for 1 h swelling degree / 3 h swelling degree / 5 h swelling degree / 7 h swelling degree: once daily for 3 days; for 1 h swelling degree: 1 h after carrageenan, control 0.41±0.12; for 3 h swelling degree: 3 h after carrageenan, control 0.83±0.13; for 5 h swelling degree: 5 h after carrageenan, control 0.70±0.12; for 7 h swelling degree: 7 h after carrageenan, control 0.63±0.11. Background: Carrageenan injected into the paw causes an acute inflammation.

Another assay concerns rat AA model (大鼠AA模型). Description: rat AA model (FCA-induced primary inflammation). The following applies: for 6 h swelling degree / 12 h swelling degree / 18 h swelling degree / 24 h swelling degree: intragastric from 3 days before FCA; for 6 h swelling degree: 6 h after FCA, control 0.49±0.06; for 12 h swelling degree: 12 h after FCA, control 0.54±0.07; for 18 h swelling degree: 18 h after FCA, control 0.64±0.07; for 24 h swelling degree: 24 h after FCA, control 0.50±0.06.

Assay [2] has as its system xylene-induced mouse ear swelling (二甲苯所致小鼠耳肿胀模型). Description: xylene-induced ear swelling model in mice. Conditions: intragastric.
[3] abbreviates: 25, 50, 100 mg/kg, intragastric.

Turning to `COc1ccc2cc([C@H](C)C(=O)O)ccc2c1` [萘普生, reference compound], in assay [1] (30 mg/kg), the “1 h swelling degree” value was found to be 0.08 ± 0.07 mL, the “3 h swelling degree” value is 0.21 ± 0.05 mL, the “5 h swelling degree” value was determined as 0.13 ± 0.08 mL and the “7 h swelling degree” value came to 0.12 ± 0.07 mL. Besides, in the assay on rat AA model (大鼠AA模型) (30 mg/kg), the “6 h swelling degree” value is 0.16 ± 0.09 mL, the “12 h swelling degree” value was found to be 0.22 ± 0.07 mL, the “18 h swelling degree” value was 0.29 ± 0.08 mL and the “24 h swelling degree” value is 0.28 ± 0.06 mL. The inhibition at 45 mg/kg in assay [2] (Mus musculus, po, 72 h, 45 mg/kg, once daily for 3 days, ear swelling vs control, P<0.01, read-out: inhibition rate) came to 45.7%.

With 28-O-β-D-葡萄糖基化远志皂苷, in assay [1] (25 mg/kg (low dose)), the “1 h swelling degree” value was found to be 0.33 ± 0.05 mL, the “3 h swelling degree” value amounted to 0.64 ± 0.16 mL, the “5 h swelling degree” value was 0.48 ± 0.13 mL and the “7 h swelling degree” value was determined as 0.33 ± 0.07 mL. Also, in assay [1] (50 mg/kg (medium dose)), the “1 h swelling degree” value came to 0.17 ± 0.05 mL, the “3 h swelling degree” value amounted to 0.45 ± 0.12 mL, the “5 h swelling degree” value was determined as 0.39 ± 0.07 mL and the “7 h swelling degree” value is 0.19 ± 0.05 mL. Moreover, in assay [1] (100 mg/kg (high dose)), the “1 h swelling degree” value was 0.11 ± 0.05 mL, the “3 h swelling degree” value is 0.37 ± 0.13 mL, the “5 h swelling degree” value turned out to be 0.31 ± 0.08 mL and the “7 h swelling degree” value amounted to 0.16 ± 0.09 mL. In assay [1] (25, 50, 100 mg/kg), the “concentration dependence of inhibition of rat paw swelling” value is “具有一定的浓度依赖性” and the “inhibition of carrageenan-induced rat paw swelling” value is “有抑制作用”. In the assay on rat AA model (大鼠AA模型) (25 mg/kg (low dose)), the “6 h swelling degree” value is 0.45 ± 0.05 mL, the “12 h swelling degree” value turned out to be 0.51 ± 0.16 mL, the “18 h swelling degree” value came to 0.61 ± 0.13 mL and the “24 h swelling degree” value came to 0.46 ± 0.15 mL. Further, in the assay with rat AA model (大鼠AA模型) (50 mg/kg (medium dose)), the “6 h swelling degree” value stood at 0.28 ± 0.05 mL, the “12 h swelling degree” value amounted to 0.30 ± 0.08 mL, the “18 h swelling degree” value stood at 0.33 ± 0.06 mL and the “24 h swelling degree” value stood at 0.27 ± 0.07 mL. Further, in the assay with rat AA model (大鼠AA模型) (100 mg/kg (high dose)), the “6 h swelling degree” value is 0.15 ± 0.06 mL, the “12 h swelling degree” value is 0.19 ± 0.08 mL, the “18 h swelling degree” value was 0.30 ± 0.07 mL and the “24 h swelling degree” value was found to be 0.25 ± 0.06 mL. Further, in the assay on rat AA model (大鼠AA模型) (setting [3]), the “concentration dependence of inhibition of primary inflammation in AA rats” value is recorded as “具有一定的浓度依赖性” and the “inhibition of FCA-induced primary inflammation in AA rats” value is given as “有明显的抑制作用”. Further, in assay [2] (25 mg/kg (low dose), once daily for 3 days, ear swelling vs control, P<0.05), the inhibition rate is on record as 6.5%. Further, in assay [2] (50 mg/kg (medium dose), once daily for 3 days, ear swelling vs control, P<0.01), the inhibition rate was 39.1%. The compound further came in with an inhibition rate in assay [2] (100 mg/kg (high dose), once daily for 3 days, ear swelling vs control, P<0.01) of 48.4%. The “inhibition of xylene-induced acute inflammation of mouse auricle” value in assay [2] (25, 50, 100 mg/kg) is “能抑制”.
